{"source": "patent US6159700A", "about": "“Method of finding agonist and antagonist to human and rat GPR14” (SmithKline Beecham Corporation, priority 1999, dated 2000)", "key": {"rat GPR14 receptor [1]": {"biological_target": "T1, rat GPR14 receptor (Rattus norvegicus, UniProt P49684)", "T1 sequence (P49684 1-386)": "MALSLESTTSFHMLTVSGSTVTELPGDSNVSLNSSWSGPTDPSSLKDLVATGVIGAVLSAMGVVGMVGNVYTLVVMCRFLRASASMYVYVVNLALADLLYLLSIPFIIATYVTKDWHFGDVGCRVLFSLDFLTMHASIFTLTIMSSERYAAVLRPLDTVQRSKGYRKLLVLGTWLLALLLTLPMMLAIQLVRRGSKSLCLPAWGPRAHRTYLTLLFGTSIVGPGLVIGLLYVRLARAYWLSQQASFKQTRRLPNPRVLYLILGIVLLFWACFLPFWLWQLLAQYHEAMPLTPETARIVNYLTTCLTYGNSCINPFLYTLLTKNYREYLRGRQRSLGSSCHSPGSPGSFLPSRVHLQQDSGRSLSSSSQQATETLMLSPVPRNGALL", "assay": "Binding to rat GPR14 receptor", "settings": "compared with Human GPR14", "source_text": "Ligand binding assays provide a direct method for ascertaining receptor pharmacology and are adaptable to a high throughput format. The purified ligand for a receptor is radiolabeled to high specific activity (50-2000 Ci/mmol) for binding studies. […] Assay conditions for buffers, ions, pH and other modulators such as nucleotides are optimized to establish a workable signal to noise ratio for both membrane and whole cell receptor sources. For these assays, specific receptor binding is defined as total associated radioactivity minus the radioactivity measured in the presence of an excess of unlabeled competing ligand. Where possible, more than one competing ligand is used to define residual nonspecific binding."}, "intact primate": {"tested_on": "intact primate", "assay": "Effects in the intact primate", "type": "in vivo"}, "Vasoconstrictor potency": {"assay": "Vasoconstrictor potency", "settings": "mammalian"}, "Rat GPR14 receptor [2]": {"biological_target": "T2, Rat GPR14 receptor (rat)", "T2 chain": "T1 sequence (P49684 1-386) with F315L", "assay": "cell-based or functional assay"}, "Human GPR14": {"biological_target": "T3, Human GPR14 (human)", "T3 chain": "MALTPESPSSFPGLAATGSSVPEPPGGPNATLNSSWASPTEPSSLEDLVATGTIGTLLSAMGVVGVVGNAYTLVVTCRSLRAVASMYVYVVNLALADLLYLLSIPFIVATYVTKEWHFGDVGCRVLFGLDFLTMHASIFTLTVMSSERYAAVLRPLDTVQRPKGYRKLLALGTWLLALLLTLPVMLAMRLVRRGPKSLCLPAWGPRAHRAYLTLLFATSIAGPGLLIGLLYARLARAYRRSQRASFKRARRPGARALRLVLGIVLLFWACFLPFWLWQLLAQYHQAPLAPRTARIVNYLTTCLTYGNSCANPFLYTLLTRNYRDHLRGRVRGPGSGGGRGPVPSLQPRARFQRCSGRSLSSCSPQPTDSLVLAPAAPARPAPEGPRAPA", "assay": "cell-based or functional assay"}}, "note": "Numbering of substitutions follows the chain as printed. Bridge positions count the residues as written; N and C are the ends. Peptide text beside a SMILES is read from it.", "data": [{"molecule": "CC(C)[C@H](NC(=O)[C@@H]1CSSC[C@H](NC(=O)[C@H](CC(=O)O)NC(=O)[C@H](C)NC(=O)[C@@H](NC(=O)CNC(=O)[C@H](C)N)[C@@H](C)O)C(=O)N[C@@H](Cc2ccccc2)C(=O)N[C@@H](Cc2c[nH]c3ccccc23)C(=O)N[C@@H](CCCCN)C(=O)N[C@@H](Cc2ccc(O)cc2)C(=O)N1)C(=O)O", "note": "[fish urotensin II] (H-AGTADCFWKYCV-OH; disulfide 6-11 (inferred); N-terminus and C-terminus assumed)", "values": [{"measurement": "binding to rat GPR14 receptor", "setting": "rat GPR14 receptor [1]", "result": "binds equally well to rat GPR14 receptor"}]}, {"molecule": "CC(C)[C@H](NC(=O)[C@@H]1CSSC[C@H](NC(=O)[C@H](CC(=O)O)NC(=O)[C@@H]2CCCN2C(=O)[C@@H](NC(=O)[C@@H](N)CCC(=O)O)[C@@H](C)O)C(=O)N[C@@H](Cc2ccccc2)C(=O)N[C@@H](Cc2c[nH]c3ccccc23)C(=O)N[C@@H](CCCCN)C(=O)N[C@@H](Cc2ccc(O)cc2)C(=O)N1)C(=O)O", "note": "[human urotensin II]", "values": [{"measurement": "cardiovascular effects in vivo", "setting": "intact primate", "result": "induces systemic vasoconstriction, myocardial contractile dysfunction and, ultimately, lethal arrhythmias"}, {"measurement": "vasoconstrictor potency", "setting": "Vasoconstrictor potency", "result": "most potent mammalian vasoconstrictor identified to date"}, {"measurement": "binding to rat GPR14 receptor", "setting": "rat GPR14 receptor [1]", "result": "binds equally well to rat GPR14 receptor"}]}, {"molecule": "AGTADCFWKYCV", "note": "[Fish urotensin II]", "values": [{"measurement": "EC50 of calcium mobilization (FLIPR)", "setting": "Rat GPR14 receptor [2]", "result": 0.8, "unit": "nM"}, {"measurement": "EC50 of calcium mobilization (FLIPR)", "setting": "Human GPR14", "result": 0.5, "unit": "nM"}]}, {"molecule": "ETPDCFWKYCV", "note": "[Human urotensin II]", "values": [{"measurement": "EC50 of calcium mobilization", "setting": "Human GPR14", "result": "0.1 to 0.2", "unit": "nM"}]}]}
